For assay [1], the target named is T1, 5-hydroxytryptamine receptor 1A (Rattus norvegicus, UniProt P19327).
T1 sequence (P19327 whole entry): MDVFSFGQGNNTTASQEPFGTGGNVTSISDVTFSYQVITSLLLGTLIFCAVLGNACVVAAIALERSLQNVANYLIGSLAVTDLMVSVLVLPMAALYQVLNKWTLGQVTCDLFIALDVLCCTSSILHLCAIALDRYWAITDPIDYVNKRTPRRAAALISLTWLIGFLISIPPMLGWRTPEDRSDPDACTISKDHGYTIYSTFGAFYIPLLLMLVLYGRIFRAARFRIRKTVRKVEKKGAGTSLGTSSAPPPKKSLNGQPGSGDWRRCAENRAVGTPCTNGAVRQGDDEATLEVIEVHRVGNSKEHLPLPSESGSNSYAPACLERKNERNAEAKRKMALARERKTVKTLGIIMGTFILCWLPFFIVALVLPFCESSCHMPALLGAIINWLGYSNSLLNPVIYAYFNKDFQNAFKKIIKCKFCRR
Put plainly: Inhibition of forskolin-activated adenylate cyclase (cAMP) activity at 5-hydroxytryptamine 1A receptor in rat hippocampus. In kind it is functional, tissue-based.

Assay [2] deals with T2, D(1A) dopamine receptor (Bos taurus, UniProt Q95136). Put plainly: Inhibition of [3H]SCH-23390 binding to Dopamine receptor D1 of bovine striatum. In kind it is tissue-based.
A further assay deals with Histamine H1 receptor (Rattus norvegicus, UniProt P31390). Put plainly: Inhibition of [3H]pyrilamine binding to Histamine H1 receptor in rat cortex.
In assay [3] the target is T1, 5-hydroxytryptamine receptor 1A. Put plainly: Displacement of [3H]8-OH-DPAT from 5-hydroxytryptamine 1A receptor of rat hippocampal membranes. In kind it is cell membranes, Membrane. Background: Loss of bound radioactivity is the signal in a displacement assay; it reports binding, not function.
A short description of assay [4]: Inhibition of [3H]ketanserin binding to 5-hydroxytryptamine 2 receptor of bovine frontal cortex. The format is tissue-based, Bos taurus.
A further assay deals with D(2) dopamine receptor (Bos taurus, UniProt P20288). Put plainly: Inhibition of [3H]raclopride binding to Dopamine receptor D2 of bovine striatum. The format is tissue-based.
For assay [5], the target named is 5-hydroxytryptamine receptor 1D (Sus scrofa, UniProt P79400). Put plainly: Binding affinity against 5-hydroxytryptamine 1D receptor using [3H]5-HT in pig striatum + frontalCortex. The format is tissue-based.
Assay [6] has as its target Sigma non-opioid intracellular receptor 1 (Rattus norvegicus, UniProt Q9R0C9). Put plainly: Inhibition of [3H]DTG binding to sigma receptor in rat hippocampus. The format is tissue-based.
Assay [7] addresses T3, 5-hydroxytryptamine receptor 3B (Mus musculus, UniProt Q9JHJ5).
T3 sequence (Q9JHJ5 whole entry): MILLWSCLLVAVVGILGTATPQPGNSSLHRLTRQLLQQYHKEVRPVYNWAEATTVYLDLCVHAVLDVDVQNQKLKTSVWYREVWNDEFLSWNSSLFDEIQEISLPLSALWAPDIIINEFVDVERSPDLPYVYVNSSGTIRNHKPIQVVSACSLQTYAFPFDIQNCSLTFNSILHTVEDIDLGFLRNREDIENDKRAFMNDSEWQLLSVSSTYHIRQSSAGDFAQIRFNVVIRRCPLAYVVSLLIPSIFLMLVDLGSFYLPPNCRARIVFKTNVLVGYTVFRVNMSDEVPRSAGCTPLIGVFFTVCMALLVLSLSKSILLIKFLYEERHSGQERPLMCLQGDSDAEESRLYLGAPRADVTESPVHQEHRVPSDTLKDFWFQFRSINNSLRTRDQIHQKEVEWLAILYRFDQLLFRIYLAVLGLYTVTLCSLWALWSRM
Put plainly: Inhibition of [3H]BRL-43694 binding to 5-hydroxytryptamine 3 receptor in NG cells 108-15. The format is cell-based.

A short description of assay [8]: Displacement of [3H]-prazosin from Alpha-1 adrenergic receptor of bovine frontal cortex. The format is tissue-based, Bos taurus.
The target in assay [9] is D(2) dopamine receptor (Bos taurus) (UniProt P20288). Put plainly: Inhibition of [3H]YM-09151-2 binding to Dopamine receptor D2 of bovine striatal preparations at 10e-7 M.
In assay [10] the target is T4, 5-hydroxytryptamine receptor 1A (Rattus norvegicus) (UniProt P19327).
T4 sequence (whole entry): T1 sequence (P19327 whole entry)
Put plainly: Inhibition of [3H]8-OH-DPAT binding to 5-hydroxytryptamine 1A receptor in rat hippocampal membranes at 10e-7 M. Particulars: Hippocampus, Membrane. In kind it is cell membranes.

The species entered for assay [11] is Bos taurus. Put plainly: Inhibition of [3H]ketanserin binding to 5-hydroxytryptamine 2 receptor of bovine frontal cortex at 10e-7 M. The format is tissue-based.
For assay [12], the species on record is Bos taurus. Put plainly: Inhibition of [3H]prazosin binding to Alpha-1 adrenergic receptor of calf frontal cortex at 10e-7 M. The format is tissue-based.
A further assay relates to Rattus norvegicus. Put plainly: in vivo behavioral test for Lower Lip Retraction(LLR) (msad=minimum significant active dose) in rats. In kind it is functional.
Assay [13] deals with 5-hydroxytryptamine receptor 2A (Bos taurus, UniProt Q75Z89). Put plainly: Binding affinity against 5-hydroxytryptamine 2 receptor.
Assay [14] has as its target D(1A) dopamine receptor (Mus musculus, UniProt Q61616). Put plainly: Binding affinity against Dopamine receptor D1.
Assay [15] addresses Sigma non-opioid intracellular receptor 1 (Homo sapiens, UniProt Q99720). Put plainly: Binding affinity against sigma receptor.
In assay [16] the target is T2, D(1A) dopamine receptor. Put plainly: Binding affinity of compound towards Dopamine receptor D1 using [3H]SCH-23390 (0.5 nM) ligand in striatum bovine was determined. The format is tissue-based.

The text below walks through data of ChEMBL document CHEMBL1129976, “New benzocycloalkylpiperazines, potent and selective 5-HT1A receptor ligands” (J Med Chem, 1997).

The IC50 is the point on the concentration scale where inhibition reaches its midpoint. By Ki is commonly meant the equilibrium dissociation constant of an inhibitor or competing ligand from its target. As a reminder, the inhibition is how much of the control response was suppressed. A lower inhibition goes with little suppression.

Chain of Histamine H1 receptor (P31390 whole entry): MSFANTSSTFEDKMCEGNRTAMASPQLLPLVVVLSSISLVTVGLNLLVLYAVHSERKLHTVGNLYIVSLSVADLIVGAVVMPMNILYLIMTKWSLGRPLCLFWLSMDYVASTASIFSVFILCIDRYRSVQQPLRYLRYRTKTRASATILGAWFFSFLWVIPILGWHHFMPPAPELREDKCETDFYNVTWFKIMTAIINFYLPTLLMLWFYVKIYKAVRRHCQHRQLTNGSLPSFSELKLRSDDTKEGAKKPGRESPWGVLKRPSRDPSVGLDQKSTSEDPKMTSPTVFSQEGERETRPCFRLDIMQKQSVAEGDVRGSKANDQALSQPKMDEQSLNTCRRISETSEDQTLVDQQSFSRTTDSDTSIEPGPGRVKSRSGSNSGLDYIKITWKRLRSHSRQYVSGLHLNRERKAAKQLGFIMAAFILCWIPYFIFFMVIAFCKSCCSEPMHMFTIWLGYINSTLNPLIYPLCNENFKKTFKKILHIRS
Chain of Sigma non-opioid intracellular receptor 1 (Rattus norvegicus, UniProt Q9R0C9) (Q9R0C9 whole entry): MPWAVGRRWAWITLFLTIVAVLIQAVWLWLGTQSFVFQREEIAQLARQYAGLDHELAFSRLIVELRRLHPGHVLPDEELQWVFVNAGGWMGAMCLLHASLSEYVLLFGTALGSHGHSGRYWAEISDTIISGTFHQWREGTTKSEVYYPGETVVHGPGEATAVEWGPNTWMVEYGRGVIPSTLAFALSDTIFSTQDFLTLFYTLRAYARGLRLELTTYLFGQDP
Chain of D(2) dopamine receptor (P20288 whole entry): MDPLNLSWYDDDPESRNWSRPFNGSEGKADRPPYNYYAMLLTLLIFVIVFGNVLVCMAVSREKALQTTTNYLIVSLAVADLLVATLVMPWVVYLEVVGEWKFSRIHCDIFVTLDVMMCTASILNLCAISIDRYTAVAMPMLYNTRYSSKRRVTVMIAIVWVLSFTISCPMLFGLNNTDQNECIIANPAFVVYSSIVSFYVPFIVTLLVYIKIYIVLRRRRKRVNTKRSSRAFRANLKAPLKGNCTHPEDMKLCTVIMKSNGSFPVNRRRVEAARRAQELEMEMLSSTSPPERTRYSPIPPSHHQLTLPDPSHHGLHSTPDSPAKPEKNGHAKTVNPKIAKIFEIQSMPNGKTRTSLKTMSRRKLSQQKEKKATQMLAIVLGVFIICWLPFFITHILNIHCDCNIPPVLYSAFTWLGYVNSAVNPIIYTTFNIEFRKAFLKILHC
Chain of D(2) dopamine receptor (Bos taurus) (P20288 whole entry): as above
T2 sequence (Q95136 whole entry): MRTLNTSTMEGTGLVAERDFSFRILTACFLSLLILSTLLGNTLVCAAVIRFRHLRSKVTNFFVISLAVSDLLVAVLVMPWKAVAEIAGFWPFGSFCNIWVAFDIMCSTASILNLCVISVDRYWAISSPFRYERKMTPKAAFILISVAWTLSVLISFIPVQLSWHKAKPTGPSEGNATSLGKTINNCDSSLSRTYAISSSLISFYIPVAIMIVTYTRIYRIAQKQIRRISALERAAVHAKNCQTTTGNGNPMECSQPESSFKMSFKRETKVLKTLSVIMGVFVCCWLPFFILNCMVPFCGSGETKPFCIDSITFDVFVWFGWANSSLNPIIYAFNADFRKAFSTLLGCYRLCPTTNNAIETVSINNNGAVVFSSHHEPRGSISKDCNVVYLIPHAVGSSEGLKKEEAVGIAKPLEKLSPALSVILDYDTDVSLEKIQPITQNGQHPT
Chain of 5-hydroxytryptamine receptor 2A (Q75Z89 whole entry): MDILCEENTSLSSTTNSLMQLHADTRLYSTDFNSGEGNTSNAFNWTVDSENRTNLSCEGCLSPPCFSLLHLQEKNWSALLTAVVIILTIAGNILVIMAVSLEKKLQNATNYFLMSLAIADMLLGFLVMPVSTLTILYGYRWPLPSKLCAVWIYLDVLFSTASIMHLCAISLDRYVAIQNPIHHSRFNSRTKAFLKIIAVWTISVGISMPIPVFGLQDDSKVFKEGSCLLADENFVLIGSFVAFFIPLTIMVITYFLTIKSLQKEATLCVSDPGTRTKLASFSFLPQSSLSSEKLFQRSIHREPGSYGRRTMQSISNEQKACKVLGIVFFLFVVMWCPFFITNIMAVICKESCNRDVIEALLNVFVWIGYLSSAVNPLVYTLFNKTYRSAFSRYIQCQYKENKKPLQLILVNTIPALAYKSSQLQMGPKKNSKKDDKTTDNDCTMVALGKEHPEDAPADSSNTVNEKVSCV
Chain of D(1A) dopamine receptor (Mus musculus, UniProt Q61616) (Q61616 whole entry): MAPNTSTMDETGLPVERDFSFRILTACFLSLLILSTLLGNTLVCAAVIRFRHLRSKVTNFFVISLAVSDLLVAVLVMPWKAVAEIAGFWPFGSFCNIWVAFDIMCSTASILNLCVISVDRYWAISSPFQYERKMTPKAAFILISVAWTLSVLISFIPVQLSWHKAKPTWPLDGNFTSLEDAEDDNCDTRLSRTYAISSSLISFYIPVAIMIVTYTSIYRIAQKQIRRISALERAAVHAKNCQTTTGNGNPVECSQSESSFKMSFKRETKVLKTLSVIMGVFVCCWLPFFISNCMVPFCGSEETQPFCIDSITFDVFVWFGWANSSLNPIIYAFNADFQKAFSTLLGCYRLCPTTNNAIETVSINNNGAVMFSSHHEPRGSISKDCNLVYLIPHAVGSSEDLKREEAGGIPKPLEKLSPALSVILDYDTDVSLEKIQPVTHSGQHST
Chain of 5-hydroxytryptamine receptor 1D (P79400 whole entry): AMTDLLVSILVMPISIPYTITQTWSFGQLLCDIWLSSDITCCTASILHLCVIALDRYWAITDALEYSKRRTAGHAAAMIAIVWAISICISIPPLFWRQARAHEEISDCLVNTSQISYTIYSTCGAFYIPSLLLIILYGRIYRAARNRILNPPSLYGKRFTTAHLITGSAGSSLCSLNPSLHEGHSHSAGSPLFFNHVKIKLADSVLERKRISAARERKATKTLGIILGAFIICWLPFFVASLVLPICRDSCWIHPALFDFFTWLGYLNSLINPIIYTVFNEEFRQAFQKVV
Chain of Sigma non-opioid intracellular receptor 1 (Homo sapiens, UniProt Q99720) (Q99720 whole entry): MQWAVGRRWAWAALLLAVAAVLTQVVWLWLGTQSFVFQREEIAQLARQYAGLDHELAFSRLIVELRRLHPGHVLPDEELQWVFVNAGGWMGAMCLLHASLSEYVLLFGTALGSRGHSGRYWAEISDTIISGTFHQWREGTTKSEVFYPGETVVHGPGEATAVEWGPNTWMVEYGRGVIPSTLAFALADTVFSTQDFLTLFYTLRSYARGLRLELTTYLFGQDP

For `O=C(NCCN1CCN(C2CCCc3ccccc32)CC1)c1ccc(F)cc1` (stereo in doubt; 33) [listing 1 of 2 here], the IC50 in assay [1] came out at 52 nM. The Ki came out at 12000 nM on D(1A) dopamine receptor [2]; 140 nM on Histamine H1 receptor; 1.5 nM in assay [3]; 1180 nM in assay [4] (read-out: Ki); 70 nM on D(2) dopamine receptor; 9770 nM in assay [5]. In addition, the values for the Ki in assay [6], in assay [7] and in [8] were 280 nM, 3470 nM and 80 nM, respectively.
Consider `O=C(NCCN1CCN(C2CCCCc3ccccc32)CC1)c1ccc(F)cc1` (stereo not drawn), for which the inhibition in assay [9] came out at 31%; in assay [10] it was 22%; in the assay filed under Bos taurus [11], 23%; in the assay filed under Bos taurus [12] it was 0%.
Take `O=C(NCCN1CCN(C2CCCc3ccccc32)CC1)c1ccccc1` (single isomer, unassigned; (-)): in [1], the IC50 is 14 nM. Further, the LLR msad in the assay on Rattus norvegicus stood at 2.75 mg/kg. Further, the Ki came out at 70 nM on Histamine H1 receptor, 0.4 nM in assay [3], 130 nM on D(2) dopamine receptor and 190 nM in assay [8].
`O=C(NCCCN1CCN(C2CCCc3ccccc32)CC1)c1ccccc1` (stereo not drawn): the inhibition is 2% in assay [9], 39% in [10], 17% in the assay filed under Bos taurus [11] and 11% in the assay listed under Bos taurus [12].
Taken in the same sequence, the figures for `O=C(NCCN1CCN(C2CCc3ccccc32)CC1)c1ccc(F)cc1` (stereo not drawn) were 0%, 69%, 0% and 36%.
In turn, `O=C(NCCN1CCN(C2CCCc3ccccc32)CC1)c1ccc(F)cc1` (single isomer, unassigned; (-)) had an IC50 in [1] of 15 nM. In the assay with Rattus norvegicus, this compound returned an LLR msad of 2.25 mg/kg. Also, the Ki at D(1A) dopamine receptor [2] was determined as 3090 nM; at Histamine H1 receptor, 58 nM; in assay [4] (read-out: Ki), 1380 nM; at D(2) dopamine receptor, 70 nM; in [6], 130 nM; in assay [8], 124 nM.
Consider `O=C1CC2(CCCC2)CC(=O)N1CCCCN1CCN(c2ncccn2)CC1` [BUSPIRONE], for which the Ki is 178 nM in [13]; 6100 nM on D(1A) dopamine receptor [2]; 1250 nM in assay [4] (read-out: Ki); 44 nM on D(2) dopamine receptor; above 1000 nM on D(1A) dopamine receptor [14]; 1320 nM in [8].
As for `COc1ccc(C(=O)NCCN2CCN(C3CCCc4ccccc43)CC2)cc1` (stereo not drawn), the inhibition was 7% in assay [9], 63% in [10], 28% in the assay filed under Bos taurus [11] and 0% in the assay listed under Bos taurus [12].
For `O=C(NCCN1CCN(C2CCCc3ccccc32)CC1)c1ccc(F)cc1` (stereo in doubt; 33) [listing 2 of 2 here], in that order: 3%, 88%, 17% and 22%.
With `O=C(NCCN1CCN(C2CCCc3ccccc32)CC1)c1ccccc1` (stereo in doubt; 32) [listing 1 of 2 here], in assay [1], the midpoint of inhibition, the IC50, lay at 36 nM. The Ki at D(1A) dopamine receptor [2] is 21900 nM; on Histamine H1 receptor, 30 nM; in assay [3], 1.1 nM; in assay [4] (read-out: Ki) it was 710 nM; at D(2) dopamine receptor, 110 nM; in assay [5] it was 6920 nM. The Ki in [6] stood at 90 nM; in [7], 3470 nM; in assay [8], 150 nM.
For `O=C(NCCN1CCN(C2CCCc3ccccc32)CC1)c1ccc(Cl)cc1` (stereo in doubt; (+)-34), the IC50 in [1] is 1500 nM. For the same compound, the Ki is 19700 nM on D(1A) dopamine receptor [2]; 210 nM in assay [3]; 3800 nM in [4]; 700 nM on D(2) dopamine receptor; 200 nM in assay [6]; 8380 nM in assay [8].
`O=C(NCCN1CCN(C2CCCc3ccccc32)CC1)c1ccc(Cl)cc1` (stereo in doubt; 34) [listing 1 of 2 here] came in with an IC50 in [1] of 75 nM. Besides, the Ki in [3] stood at 10 nM; in assay [4], 1000 nM; at D(2) dopamine receptor, 120 nM; in [8], 410 nM.
As to `Cc1ccc(C(=O)NCCN2CCN(C3CCCc4ccccc43)CC2)cc1` (stereo not drawn), the inhibition in assay [9] stood at 5%; in [10] it was 42%; in the assay filed under Bos taurus [11], 6%; in the assay filed under Bos taurus [12], 0%.
For `O=C(NCCN1CCN(C2CCCc3ccccc32)CC1)c1ccc(Cl)cc1` (stereo in doubt; (-)-34), it took 38 nM to reach half-maximal inhibition in assay [1] (IC50). Moreover, in the assay with Rattus norvegicus, the LLR msad stood at 2.5 mg/kg. In addition, the Ki was 27000 nM at D(1A) dopamine receptor [2]; 4 nM in assay [3]; 2700 nM in [4]; 480 nM on D(2) dopamine receptor; 1250 nM in assay [6]; 450 nM in assay [8].
On to `O=C(NCCN1CCN(C2CCCc3ccccc32)CC1)c1ccccc1` (stereo in doubt; 32) [listing 2 of 2 here], for which the inhibition in [9] is 4%; in assay [10] it was 93%; in the assay listed under Bos taurus [11], 0%; in the assay listed under Bos taurus [12], 4%.
Turning to `O=C(NCCCN1CCN(C2CCCc3ccccc32)CC1)c1ccc(F)cc1` (stereo not drawn), the inhibition in assay [9] turned out to be 0%; in assay [10], 68%; in the assay listed under Bos taurus [11], 19%; in the assay filed under Bos taurus [12], 6%.
Regarding `O=C(NCCN1CCN(C2CCCCc3ccccc32)CC1)c1ccccc1` (stereo not drawn), the inhibition in [9] was 7%; in assay [10] it was 51%; in the assay listed under Bos taurus [11], 37%; in the assay listed under Bos taurus [12], 0%.
On to `COc1ccc(C(=O)NCCN2CCN(C3CCCCc4ccccc43)CC2)cc1` (stereo not drawn), for which the inhibition worked out at 60% in assay [9], 11% in [10], 10% in the assay listed under Bos taurus [11] and 0% in the assay filed under Bos taurus [12].
In the case of `CCCN(CCC)C1CCc2cccc(O)c2C1` (stereo not drawn) [8-OH-DPAT], the Ki in [13] was above 1000 nM; in [15], above 2430 nM; on D(1A) dopamine receptor [2] it was 87300 nM; in assay [4] (read-out: Ki), 1100 nM; on D(2) dopamine receptor, 2380 nM; in [6] it was 5240 nM. Besides, the Ki on D(1A) dopamine receptor [14] is above 1000 nM; in assay [8], 9460 nM. This compound yielded an LLR msad with Rattus norvegicus of 2.2 mg/kg.
Consider `Cc1ccc(C(=O)NCCN2CCN(C3CCCCc4ccccc43)CC2)cc1` (stereo not drawn), for which the inhibition in assay [9] worked out at 47%; in assay [10], 0%; in the assay listed under Bos taurus [11], 14%; in the assay filed under Bos taurus [12], 0%.
For `O=C(NCCN1CCN(C2CCCc3ccccc32)CC1)c1ccc(Cl)cc1` (stereo in doubt; 34) [listing 2 of 2 here], the inhibition in [9] is 29%; in assay [10] it was 86%; in the assay listed under Bos taurus [11], 6%; in the assay listed under Bos taurus [12], 23%.
Consider `COc1ccc(C(=O)NCCN2CCN(C3CCc4ccccc43)CC2)cc1` (stereo not drawn), for which the inhibition in assay [9] was 11%; in [10], 45%; in the assay listed under Bos taurus [11] it was 17%; in the assay filed under Bos taurus [12], 6%.
`O=C(NCCN1CCN(C2CCCc3ccccc32)CC1)c1ccc(F)cc1` (single isomer, unassigned; (+)) showed an IC50 in assay [1] of 1450 nM. Further, the Ki in assay [3] was found to be 50 nM; in [4] (read-out: Ki) it was 1300 nM; at D(2) dopamine receptor it was 740 nM; in assay [6], 190 nM; in [8], 710 nM.
Consider `OCCN1CCN(CC/C=C2\c3ccccc3Sc3ccc(C(F)(F)F)cc32)CC1` [E-FLUPENTIXOL], for which the Ki on D(1A) dopamine receptor [16] stood at 18 nM.
